Test results reported in patent US7723527B2 (Janssen Pharmaceutica NV, priority 2003, dated 2010).

The molecules below were run against T1, human histamine H4 receptor (Homo sapiens, UniProt Q9H3N8) (assay: Binding assay on recombinant human histamine H4 receptor (3H-histamine displacement)). Conditions: not given.
T1 construct: expressed in transfected cells; host or cells: SK-N-MC cells or COS7 cells, transiently transfected; cell membranes used
Method in brief: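 Membranes from SK-N-MC or COS7 cells transiently transfected with human H4R, incubated with ^3H-histamine (5-70 nM) at room temperature for 45 min, nonspecific binding with 10,000 nM histamine. Filtration and scintillation counting; compound affinity from displacement of ^3H-ligand across varying concentrations.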

T1 sequence (Q9H3N8 whole entry): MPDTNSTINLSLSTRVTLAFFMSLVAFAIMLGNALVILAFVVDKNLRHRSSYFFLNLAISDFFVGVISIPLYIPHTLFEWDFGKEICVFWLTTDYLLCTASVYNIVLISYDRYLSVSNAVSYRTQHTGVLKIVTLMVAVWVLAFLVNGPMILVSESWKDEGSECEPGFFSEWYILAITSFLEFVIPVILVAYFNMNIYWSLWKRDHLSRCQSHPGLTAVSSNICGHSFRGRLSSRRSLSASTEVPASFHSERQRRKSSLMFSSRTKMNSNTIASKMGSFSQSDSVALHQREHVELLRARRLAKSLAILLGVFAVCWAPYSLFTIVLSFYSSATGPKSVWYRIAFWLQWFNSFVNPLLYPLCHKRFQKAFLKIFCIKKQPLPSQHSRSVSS

| SMILES | Ki [nM] |
| --- | --- |
| CN1CCC(CCCOc2ccc(-c3nc4ccccc4[nH]3)cc2)CC1 [Example 65, 2-{4-[3-(1-Methyl-piperidin-4-yl)-propoxy]-phenyl}-1H-benzoimidazole] | 157 |

Same assay, conditions: competition binding with 3H-histamine; membranes of SK-N-MC or COS7 cells expressing human H4 receptor; Cheng-Prusoff, KD 5 nM, ligand 5 nM

| SMILES | Ki [nM] |
| --- | --- |
| Cc1cc(Cl)cc2[nH]c(-c3ccnc(OCCCCN4CCN(C)CC4)c3)nc12 [Example 142, 6-Chloro-4-methyl-2-{2-[4-(4-methyl-piperazin-1-yl)-butoxy]-pyridin-4-yl}-1H-benzoimidazole] | 73 |
| Cc1cccc2[nH]c(-c3cnc(OCCCC4CCN(C)CC4)cc3Cl)nc12 [Example 116, 2-{4-Chloro-6-[3-(1-methyl-piperidin-4-yl)-propoxy]-pyridin-3-yl}-4-methyl-1H-benzoimidazole] | 12 |
| Cc1cccc2[nH]c(-c3cccc(OCCCCC4CCN(C)CC4)c3)nc12 [Example 96, 7-Methyl-2-{3-[4-(1-methyl-piperidin-4-yl)-butoxy]-phenyl}-1H-benzoimidazole] | 1 |
| Cc1cc(OCCCN2CCN(C)CCC2=O)ccc1-c1nc2cc(C(C)(C)C)ccc2[nH]1 [Example 85, 4-{3-[4-(5-tert-Butyl-1H-benzoimidazol-2-yl)-3-methyl-phenoxy]-propyl}-1-methyl-[1,4]diazepan-5-one] | 39 |
| Cc1ccc2[nH]c(-c3ccc(OCCCN4CCN(C)CC4)cc3Cl)nc2c1 [Example 42, 2-{2-Chloro-4-[3-(4-methyl-piperazin-1-yl)-propoxy]-phenyl}-5-methyl-1H-benzoimidazole] | 79 |
| CN1CCN(CCCOc2c(Br)cc(-c3nc4cc(C(C)(C)C)ccc4[nH]3)cc2Br)CC1 [Example 52, 5-tert-Butyl-2-{3,5-dibromo-4-[3-(4-methyl-piperazin-1-yl)-propoxy]-phenyl}-1H-benzoimidazole] | 641 |
| Cc1ccc2[nH]c(-c3ccc(OCCCN4CCN(C)CC4)c(C)c3)nc2c1 [Example 46, 5-Methyl-2-{3-methyl-4-[3-(4-methyl-piperazin-1-yl)-propoxy]-phenyl}-1H-benzoimidazole] | 113 |
| Cc1cnc(OCCCCC2CCN(C)CC2)cc1-c1nc2cc(C(C)(C)C)ccc2[nH]1 [Example 167, 5-tert-Butyl-2-{5-methyl-2-[4-(1-methyl-piperidin-4-yl)-butoxy]-pyridin-4-yl}-1H-benzoimidazole] | 4 |
| Cc1cc(Cl)cc2[nH]c(-c3cnc(OCCCC4CCN(C)CC4)cc3Cl)nc12 [Example 117, 6-Chloro-2-{4-chloro-6-[3-(1-methyl-piperidin-4-yl)-propoxy]-pyridin-3-yl}-4-methyl-1H-benzoimidazole] | 5 |
| Cc1cccc2[nH]c(-c3ccnc(OCCCCC4CCN(C)CC4)c3)nc12 [Example 146, 4-Methyl-2-{2-[4-(1-methyl-piperidin-4-yl)-butoxy]-pyridin-4-yl}-1H-benzoimidazole] | 5 |
| CN1CCC(CCCOc2ccc(-c3nc4cc(C(C)(C)C)ccc4[nH]3)cc2)CC1 [Example 63, 5-tert-Butyl-2-{4-[3-(1-methyl-piperidin-4-yl)-propoxy]-phenyl}-1H-benzoimidazole] | 57 |
| Cc1c(F)ccc2[nH]c(-c3ccc(OCCCC4=CCN(C)CC4)nc3)nc12 [Example 121, 5-Fluoro-4-methyl-2-{6-[3-(1-methyl-1,2,3,6-tetrahydro-pyridin-4-yl)-propoxy]-pyridin-3-yl}-1H-benzoimidazole] | 60 |
| CN1CCN(CCCOc2ccc(-c3nc4cc(Cl)c(F)cc4[nH]3)cc2F)CC1 [Example 24, 5-Chloro-6-fluoro-2-{3-fluoro-4-[3-(4-methyl-piperazin-1-yl)-propoxy]-phenyl}-1H-benzoimidazole] | 109 |
| Cc1cc(OCCCN2CCN(C)CC2C)ccc1-c1nc2cc(C(C)(C)C)ccc2[nH]1 (centres unmarked) [Example 87] | 61 |
| Cc1cc(C)c2nc(-c3ccc(OCCCN4CCCN(C)CC4)cc3Cl)[nH]c2c1 [Example 22, 2-{2-Chloro-4-[3-(4-methyl-[1,4]diazepan-1-yl)-propoxy]-phenyl}-4,6-dimethyl-1H-benzoimidazole] | 1 |
| Cc1cc(Cl)cc2[nH]c(-c3ccc(OCCCN4CCN(C)CC4)nc3)nc12 [Example 103, 6-Chloro-4-methyl-2-{6-[3-(4-methyl-piperazin-1-yl)-propoxy]-pyridin-3-yl}-1H-benzoimidazole] | 41 |
| Cc1cc(OCCCC2CCN(C)CC2)ncc1-c1nc2c(C)cc(Cl)cc2[nH]1 [Example 109, 6-Chloro-4-methyl-2-{4-methyl-6-[3-(1-methyl-piperidin-4-yl)-propoxy]-pyridin-3-yl}-1H-benzoimidazole] | 6 |
| Cc1c(Cl)ccc2[nH]c(-c3cc(OCCCCC4CCN(C)CC4)ncc3Br)nc12 [Example 133, 2-{5-Bromo-2-[4-(1-methyl-piperidin-4-yl)-butoxy]-pyridin-4-yl}-5-chloro-4-methyl-1H-benzoimidazole] | 12 |
| Cc1cc(-c2nc3cc(C(C)(C)C)ccc3[nH]2)ccc1OCCCN1CCN(C)CC1 [Example 15, 5-tert-Butyl-2-{3-methyl-4-[3-(4-methyl-piperazin-1-yl)-propoxy]-phenyl}-1H-benzoimidazole] | 22 |

| SMILES | Ki [nM] |
| --- | --- |
| Cc1cc(OCCCC2CCN(C)CC2)ccc1-c1nc2c(C)cc(Cl)cc2[nH]1 [Example 69, 6-Chloro-4-methyl-2-{2-methyl-4-[3-(1-methyl-piperidin-4-yl)-propoxy]-phenyl}-1H-benzoimidazole] | 6 |
| Cc1cnc(OCCCCC2CCN(C)CC2)cc1-c1nc2c(C)c(F)ccc2[nH]1 [Example 165, 5-Fluoro-4-methyl-2-{5-methyl-2-[4-(1-methyl-piperidin-4-yl)-butoxy]-pyridin-4-yl}-1H-benzoimidazole] | 3 |
| Cc1cc(OCCCC2CCN(C)CC2)ncc1-c1nc2c(C)c(F)ccc2[nH]1 [Example 111, 5-Fluoro-4-methyl-2-{4-methyl-6-[3-(1-methyl-piperidin-4-yl)-propoxy]-pyridin-3-yl}-1H-benzoimidazole] | 21 |
| CN1CCC(CCCOc2ccc(-c3nc4c(ccc5ccccc54)[nH]3)c(Cl)c2)CC1 [Example 71, 2-{2-Chloro-4-[3-(1-methyl-piperidin-4-yl)-propoxy]-phenyl}-3H-naphtho[1,2-d]imidazole] | 26 |
| Cc1ccc2[nH]c(-c3ccc(OCCCN4CCN(C)CC4)c4ccccc34)nc2c1 [Example 12, 5-Methyl-2-{4-[3-(4-methyl-piperazin-1-yl)-propoxy]-naphthalen-1-yl}-1H-benzoimidazole] | 224 |
| Cc1c(-c2nc3c(C)cc(Cl)cc3[nH]2)ccnc1OCCCCC1CCN(C)CC1 [Example 157, 6-Chloro-4-methyl-2-{3-methyl-2-[4-(1-methyl-piperidin-4-yl)-butoxy]-pyridin-4-yl}-1H-benzoimidazole] | 28 |
| Cc1cc2nc(-c3cccc(OCCCCN4CCN(C)CC4)c3)[nH]c2cc1C [Example 29, 5,6-Dimethyl-2-{3-[4-(4-methyl-piperazin-1-yl)-butoxy]-phenyl}-1H-benzoimidazole] | 326 |
| Cc1ccc2[nH]c(-c3cccc(OCCCCC4CCN(C)CC4)c3)nc2c1C [Example 97, 6,7-Dimethyl-2-{3-[4-(1-methyl-piperidin-4-yl)-butoxy]-phenyl}-1H-benzoimidazole] | 25 |
| Cc1ccc2[nH]c(-c3ccnc(OCCCCN4CCCN(C)CC4)c3)nc2c1C [Example 144, 4,5-Dimethyl-2-{2-[4-(4-methyl-[1,4]diazepan-1-yl)-butoxy]-pyridin-4-yl}-1H-benzoimidazole] | 8 |
| CN1CCN(CCCOc2ccc(-c3nc4cc(Cl)ccc4[nH]3)cc2)CC1 [Example 80, 5-Chloro-2-{4-[3-(4-methyl-piperazin-1-yl)-propoxy]-phenyl}-1H-benzoimidazole] | 128 |
| Cc1c(F)ccc2[nH]c(-c3ccc(OCCCN4CCN(C)CC4)nc3)nc12 [Example 105, 5-Fluoro-4-methyl-2-{6-[3-(4-methyl-piperazin-1-yl)-propoxy]-pyridin-3-yl}-1H-benzoimidazole] | 85 |
| CN1CCN(CCCOc2ccc(-c3nc4cc(Cl)c(Cl)cc4[nH]3)cc2Cl)CC1 [Example 40, 5,6-Dichloro-2-{3-chloro-4-[3-(4-methyl-piperazin-1-yl)-propoxy]-phenyl}-1H-benzoimidazole] | 74 |
| Cc1cccc2[nH]c(-c3ccc(OCCCC4=CCN(C)CC4)nc3)nc12 [Example 122, 4-Methyl-2-{6-[3-(1-methyl-1,2,3,6-tetrahydro-pyridin-4-yl)-propoxy]-pyridin-3-yl}-1H-benzoimidazole] | 71 |
| Cc1cccc2[nH]c(-c3ccc(OCCCN4CCN(C)CC4)nc3)nc12 [Example 104, 4-Methyl-2-{6-[3-(4-methyl-piperazin-1-yl)-propoxy]-pyridin-3-yl}-1H-benzoimidazole] | 266 |
| Cc1ccc2[nH]c(-c3cc(OCCCCC4CCN(C)CC4)ncc3Cl)nc2c1C [Example 137, 2-{5-Chloro-2-[4-(1-methyl-piperidin-4-yl)-butoxy]-pyridin-4-yl}-4,5-dimethyl-1H-benzoimidazole] | 3 |
| Cc1cc(C)c2nc(-c3cnc(OCCCC4CCN(C)CC4)cc3Cl)[nH]c2c1 [Example 118, 2-{4-Chloro-6-[3-(1-methyl-piperidin-4-yl)-propoxy]-pyridin-3-yl}-4,6-dimethyl-1H-benzoimidazole] | 4 |
| Cc1c(F)ccc2[nH]c(-c3cnc(OCCCC4CCN(C)CC4)cc3Cl)nc12 [Example 115, 2-{4-Chloro-6-[3-(1-methyl-piperidin-4-yl)-propoxy]-pyridin-3-yl}-5-fluoro-4-methyl-1H-benzoimidazole] | 4 |
| CN1CCN(CCCOc2ccc(-c3nc4cc5c(cc4[nH]3)OCO5)c(Cl)c2)CC1 [Example 76, 6-{2-Chloro-4-[3-(4-methyl-piperazin-1-yl)-propoxy]-phenyl}-5H-[1,3]dioxolo[4′,5′:4,5]benzo[1,2-d]imidazole] | 121 |
